Results taken from patent US20180092357A1, “SYNERGISTIC PRESERVATIVE COMPOSITIONS” (ISP Investments LLC, priority 2015, published 2018).
Values joined by “and” are separate entries in the source; they are usually repeats but may differ in a detail not shown here. Equal entries are not always repeated.

What was measured:
Format in all cases: cell-based
B. cepacia (ATCC 25416) = test: MIC and synergy test (Kull method); details: compound or premix acting alone
Description: (§1) The cumulative synergistic activity of propylene carbonate, organic compounds/preservative compounds are performed against selected microbial strains.
(§2) Tryptic Soy Broth (TSB) media was used for bacterial evaluations and Yeast Malt Broth (YMB) for fungal evaluations. The compounds were added to the media and serially diluted. After serially diluting the media, 100 μl of a suspension of the testing bacteria or fungi were added to a final concentration of approximately […]. The inoculated media was then incubated at 32° C. for 2-5 days for bacteria or at 28° C. for 3-7 days for fungi.
(§3) The lowest concentration of each compound or mixture or compounds to inhibit visible growth was taken as the minimum inhibitory concentration (MIC). The MIC was taken as end points of activity. End points for the mixture of compound A (Propylene Carbonate) and compound B (organic compounds/conventional preservative) were then compared with the end points for the pure active ingredient alone.
(§4) Synergism was determined by a commonly used and accepted method described by Kull A. C.; Eisman, P. C.; Sylwestrowicz, H. D. and Mayer, R. L. 1961. Applied Microbiology, 9:538-541 using the ratio determine by:
(§5) • QA is the concentration of compound A in PPM, acting alone, which produced an end point. • Qa is the concentration of compound A in PPM, in the mixture, which produced an end point. • QB is the concentration of compound B in PPM, acting alone, which produced an end point. • Qb is the concentration of compound B in PPM, in the mixture, which produced an end point
(§6) When the sum of Qa/QA+Qb/QB is greater than one, antagonism is indicated. When the sum is equal to one, additive is indicated.
(§7) The results comprise following parameters: 1. Test organism (bacteria or fungi), 2. The end-point activity in % measured by MIC for the compound A alone (QA), for compound A in the mixture (Qa), for compound B alone (QB), for compound B in the mixture (Qb), 3. The ratio of Propylene carbonate or combinations of propylene carbonate and an organic compound (compound A) to organic compound (compound B) in that particular combination and the synergy index (SI) based on the formula SI=Qa/QA+Qb/QB.

E. coli (ATCC 8739) = test: MIC and synergy test (Kull method); details: compound or premix acting alone
Description: as §1, §2, §3, §4, §5, §6, §7

S. aureus (ATCC 6538) = test: MIC and synergy test (Kull method); details: compound or premix acting alone
Description: as §1, §2, §3, §4, §5, §6, §7

[1] = system: A. brasilensis (ATCC 16404); test: MIC and synergy test (Kull method); details: compound or premix acting alone
Description: as §1, §2, §3, §4, §5, §6, §7

[2] = system: P. aeruginosa (ATCC 9027); test: MIC and synergy test (Kull method); details: compound or premix acting alone
Description: as §1, §2, §3, §4, §5, §6, §7

C. albicans (ATCC 10231) = test: MIC and synergy test (Kull method)
Description: as §1, §2, §3, §4, §5, §6, §7

bacteria and fungi = test: Antimicrobial and antifungal characteristics (MIC), general statement; details: alone

Compound: CC1CCC(C(C)C)C(O)C1 (racemic) [DLM, DL-Menthol]
- MIC of the compound acting alone (QA, QB) (B. cepacia (ATCC 25416)): 0.69%
- MIC of the compound acting alone (QA, QB) (E. coli (ATCC 8739)): 1.39%
- MIC of the compound acting alone (QA, QB) (S. aureus (ATCC 6538)): 0.69%

Compound: CCCCCCCC(=O)NO [CHA, Capryl Hydroxamic Acid]
- MIC of the compound acting alone (QA, QB) [1]: 0.031%
- MIC of the compound acting alone (QA, QB) (E. coli (ATCC 8739)): 0.031%
- MIC of the compound acting alone (QA, QB) (S. aureus (ATCC 6538)): 0.125%

Compound: Cc1cc(O)ccc1C(C)C [DBL, O-cymen-5-ol]
- MIC of the compound acting alone (QA, QB) (E. coli (ATCC 8739)): 0.0625%

Compound: CCCCCCCCC(O)CO (stereo not shown) [DD]
- MIC of the compound acting alone (QA, QB) [1]: 0.0156% and 0.008%
- MIC of the compound acting alone (QA, QB) (B. cepacia (ATCC 25416)): 0.0625%
- MIC of the compound acting alone (QA, QB) (E. coli (ATCC 8739)): 0.0625% and 0.0312%
- MIC of the compound acting alone (QA, QB) [2]: >2.5%
- MIC of the compound acting alone (QA, QB) (S. aureus (ATCC 6538)): 0.0312% and 0.0156%

Compound: CCCCC(O)CO (stereo not shown) [HD, 1,2-hexanediol]
- MIC of the compound acting alone (QA, QB) [1]: 1.25%
- MIC of the compound acting alone (QA, QB) (B. cepacia (ATCC 25416)): 0.625%
- MIC of the compound acting alone (QA, QB) (E. coli (ATCC 8739)): 1.25%
- MIC of the compound acting alone (QA, QB) [2]: 1.25%
- MIC of the compound acting alone (QA, QB) (S. aureus (ATCC 6538)): 2.5%

Compound: CCCCCCOCC(O)CO (stereo not shown) [HG, Hexylglycerine]
- MIC of the compound acting alone (QA, QB) [1]: 0.156%

Compound: CCCCCCC(O)CO (stereo not shown) [OD, 1,2 octanediol]
- MIC of the compound acting alone (QA, QB) [1]: 0.312%
- MIC of the compound acting alone (QA, QB) [2]: 0.625%
- MIC of the compound acting alone (QA, QB) (S. aureus (ATCC 6538)): 0.625%

Compound: CCC(=O)O [PA, Propionic Acid]
- MIC of the compound acting alone (QA, QB) [1]: 0.078%
- MIC of the compound acting alone (QA, QB) (B. cepacia (ATCC 25416)): 0.20%

Compound: CC1COC(=O)O1 (stereo not shown) [PC, Propylene Carbonate]
- MIC of the compound acting alone (QA, QB) [1]: 1.56% and 3.12% and 0.78%
- MIC of the compound acting alone (QA, QB) (B. cepacia (ATCC 25416)): 3.12% and 1.56%
- MIC of the compound acting alone (QA, QB) (C. albicans (ATCC 10231)): 6.25%
- MIC of the compound acting alone (QA, QB) (E. coli (ATCC 8739)): 3.12% and 1.56% and 6.25%
- MIC of the compound acting alone (QA, QB) [2]: 3.12%
- MIC of the compound acting alone (QA, QB) (S. aureus (ATCC 6538)): 12.5% and 3.12% and 6.25%
- antimicrobial and antifungal characteristics (MIC) (bacteria and fungi): no significant antimicrobial and antifungal characteristics

Compound: OCCc1ccccc1 [PhA, Phenethyl Alcohol]
- MIC of the compound acting alone (QA, QB) (B. cepacia (ATCC 25416)): 0.156%
- MIC of the compound acting alone (QA, QB) (C. albicans (ATCC 10231)): 0.625%

Compound: CCCCCCCCCCC=O [UND, Undecanal]
- MIC of the compound acting alone (QA, QB) [1]: 1.25%

Compound: Alkyl Glucoside [AG6206]
- MIC of the compound acting alone (QA, QB) [2]: 3.12%
